From PMC12475274, “Harnessing indole scaffolds to identify small-molecule IRE1α inhibitors modulating XBP1 mRNA splicing” (Nature Communications, 2025)
Entries after “also recorded” stand apart in the source; their conditions may differ. One block for each compound: values may come before it.

How the values were obtained:
[1] = target: T1, IRE1α in A549 cells (Homo sapiens, UniProt O75460); experiment: Cellular thermal shift assay (CETSA) in A549 cells; format: cell-based
T1 construct: endogenous in cells; host or cells: A549 cells
Description: A549 cells were harvested and seeded into 100 mm standard cell culture dishes at 80% confluency and cultured overnight. For the IA107 experiment, cells were gently washed with pre-cooled DPBS (Gibco,14190169) and lysed in RIPA buffer (Sigma, R0278) supplemented with phosphatase inhibitor (Roch, 4906845001) and 1× protease inhibitor cocktail (Sigma, P8340) for 30 min on ice. Cell lysates were centrifuged at 18,000 × g for 30 min at 4 °C and the supernatants were collected. The lysates were collected together and then aliquoted into 550 μL, the aliquots were incubated with different concentrations of IA107 with a final concentration of 0.1% DMSO for 30 min at room temperature. […]
For the IAPD1 experiment, A549 cells were treated with different concentrations of IAPD1 or DMSO for 4 h (final 0.1% DMSO). […] Lysates were collected by scraping and centrifuged at 18,000 × g for 30 min at 4 °C, and the protein concentrations of the supernatants were quantified using a BCA protein assay kit (Thermo Scientific, 23227) and diluted to 4 μg/μL, then cell lysate was aliquoted into 10 PCR tubes, with 50 μL of lysate per tube. […] After heating, samples were centrifuged at 18,000 × g for 30 min at 4 °C, and supernatants were collected and analyzed by western blot using the method and antibodies aforementioned.

[2] = target: ICK (Homo sapiens, UniProt Q9UPZ9); experiment: Kinase profiling (SelectScreen), LanthaScreen Binding; conditions: IA107 at 5 μM
Description: (§1) Kinase profiling was conducted by the SelectScreen Kinase Profiling Services (Thermo Fisher), using Z′-LYTE, Adapta, or LanthaScreen Eu Kinase Binding Assay for different kinases. The kinome phylogenetic tree was generated using the KinMap web portal.

[3] = target: BRSK2 (Homo sapiens, UniProt Q8IWQ3); experiment: as above; conditions: IA107 at 5 μM
Description: as §1

[4] = target: STK38 (NDR) (Homo sapiens, UniProt Q15208); experiment: as above; conditions: IA107 at 5 μM
Description: as §1

[5] = target: CDC7/DBF4 (Homo sapiens, UniProt O00311); experiment: as above; conditions: IA107 at 5 μM
Description: as §1

[6] = target: MAPK15 (ERK7) (Homo sapiens, UniProt Q8TD08); experiment: as above; conditions: IA107 at 5 μM
Description: as §1

[7] = target: STK33 (Homo sapiens, UniProt Q9BYT3); experiment: as above; conditions: IA107 at 5 μM
Description: as §1

[8] = target: TTK (Homo sapiens, UniProt P33981); experiment: as above; conditions: IA107 at 5 μM
Description: as §1

[9] = target: STK32B (YANK2) (Homo sapiens, UniProt Q9NY57); experiment: as above; conditions: IA107 at 5 μM
Description: as §1

[10] = target: CASK (Homo sapiens, UniProt O14936); experiment: as above; conditions: IA107 at 5 μM
Description: as §1

[11] = target: MAP4K1 (HPK1) (Homo sapiens, UniProt Q92918); experiment: as above; conditions: IA107 at 5 μM
Description: as §1

[12] = target: BMPR2 (Homo sapiens, UniProt Q13873); experiment: as above; conditions: IA107 at 5 μM
Description: as §1

[13] = target: CAMKK2 (CaMKK beta) (Homo sapiens, UniProt Q96RR4); experiment: as above; conditions: IA107 at 5 μM
Description: as §1

[14] = target: MAP3K11 (MLK3) (Homo sapiens, UniProt Q16584); experiment: as above; conditions: IA107 at 5 μM
Description: as §1

[15] = target: BMPR1B (ALK6) (Homo sapiens, UniProt O00238); experiment: as above; conditions: IA107 at 5 μM
Description: as §1

[16] = target: MYO3B (MYO3 beta) (Homo sapiens, UniProt Q8WXR4); experiment: as above; conditions: IA107 at 5 μM
Description: as §1

[17] = target: DDR2 (Homo sapiens, UniProt Q16832); experiment: as above; conditions: IA107 at 5 μM
Description: as §1

[18] = target: RPS6KA3 (RSK2) (Homo sapiens, UniProt P51812); experiment: Kinase profiling (SelectScreen), ZLYTE; format: biochemical
Description: as §1

[19] = target: MAP2K1 (MEK1) (Homo sapiens, UniProt Q02750); experiment: Kinase profiling (SelectScreen), ZLYTE; format: biochemical; conditions: IA107 at 5 μM; ATP 100 μM
Description: as §1

[20] = target: CSNK2A1 (CK2 alpha 1) (Homo sapiens, UniProt P68400); experiment: Kinase profiling (SelectScreen), ZLYTE; format: biochemical
Description: as §1

[21] = target: KIT (Homo sapiens, UniProt P10721); experiment: Kinase profiling (SelectScreen), ZLYTE; format: biochemical
Description: as §1

[22] = target: NTRK2 (TRKB) (Homo sapiens, UniProt Q16620); experiment: Kinase profiling (SelectScreen), ZLYTE; format: biochemical
Description: as §1

[23] = target: JAK3 (Homo sapiens, UniProt P52333); experiment: Kinase profiling (SelectScreen), ZLYTE; format: biochemical
Description: as §1

T1 sequence (O75460 19-977): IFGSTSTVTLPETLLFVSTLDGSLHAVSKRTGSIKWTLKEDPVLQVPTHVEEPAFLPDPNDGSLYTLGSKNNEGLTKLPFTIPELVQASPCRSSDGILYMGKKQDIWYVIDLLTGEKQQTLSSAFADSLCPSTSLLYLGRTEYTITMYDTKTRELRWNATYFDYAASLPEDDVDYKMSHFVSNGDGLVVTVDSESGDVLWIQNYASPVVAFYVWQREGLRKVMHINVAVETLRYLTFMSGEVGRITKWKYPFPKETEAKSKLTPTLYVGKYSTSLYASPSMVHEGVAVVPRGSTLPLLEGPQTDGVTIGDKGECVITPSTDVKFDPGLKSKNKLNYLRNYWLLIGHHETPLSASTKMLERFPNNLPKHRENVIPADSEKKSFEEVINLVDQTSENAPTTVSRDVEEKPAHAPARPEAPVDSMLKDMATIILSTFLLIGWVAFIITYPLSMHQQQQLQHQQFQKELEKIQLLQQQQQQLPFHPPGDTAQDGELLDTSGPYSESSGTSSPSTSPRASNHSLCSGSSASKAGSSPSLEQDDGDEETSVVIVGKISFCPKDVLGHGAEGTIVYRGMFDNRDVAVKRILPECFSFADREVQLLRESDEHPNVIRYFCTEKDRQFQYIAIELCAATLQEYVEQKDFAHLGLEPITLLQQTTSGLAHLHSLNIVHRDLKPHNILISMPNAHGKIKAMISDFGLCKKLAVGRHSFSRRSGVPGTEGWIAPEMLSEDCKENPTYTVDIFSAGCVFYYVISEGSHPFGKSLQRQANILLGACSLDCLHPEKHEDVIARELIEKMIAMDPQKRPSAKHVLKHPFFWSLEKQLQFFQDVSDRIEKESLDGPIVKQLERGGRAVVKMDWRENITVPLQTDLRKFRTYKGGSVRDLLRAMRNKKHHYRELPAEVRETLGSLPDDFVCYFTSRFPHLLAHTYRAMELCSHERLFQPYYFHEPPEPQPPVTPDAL
Chain of BMPR2 (Q13873 27-1038): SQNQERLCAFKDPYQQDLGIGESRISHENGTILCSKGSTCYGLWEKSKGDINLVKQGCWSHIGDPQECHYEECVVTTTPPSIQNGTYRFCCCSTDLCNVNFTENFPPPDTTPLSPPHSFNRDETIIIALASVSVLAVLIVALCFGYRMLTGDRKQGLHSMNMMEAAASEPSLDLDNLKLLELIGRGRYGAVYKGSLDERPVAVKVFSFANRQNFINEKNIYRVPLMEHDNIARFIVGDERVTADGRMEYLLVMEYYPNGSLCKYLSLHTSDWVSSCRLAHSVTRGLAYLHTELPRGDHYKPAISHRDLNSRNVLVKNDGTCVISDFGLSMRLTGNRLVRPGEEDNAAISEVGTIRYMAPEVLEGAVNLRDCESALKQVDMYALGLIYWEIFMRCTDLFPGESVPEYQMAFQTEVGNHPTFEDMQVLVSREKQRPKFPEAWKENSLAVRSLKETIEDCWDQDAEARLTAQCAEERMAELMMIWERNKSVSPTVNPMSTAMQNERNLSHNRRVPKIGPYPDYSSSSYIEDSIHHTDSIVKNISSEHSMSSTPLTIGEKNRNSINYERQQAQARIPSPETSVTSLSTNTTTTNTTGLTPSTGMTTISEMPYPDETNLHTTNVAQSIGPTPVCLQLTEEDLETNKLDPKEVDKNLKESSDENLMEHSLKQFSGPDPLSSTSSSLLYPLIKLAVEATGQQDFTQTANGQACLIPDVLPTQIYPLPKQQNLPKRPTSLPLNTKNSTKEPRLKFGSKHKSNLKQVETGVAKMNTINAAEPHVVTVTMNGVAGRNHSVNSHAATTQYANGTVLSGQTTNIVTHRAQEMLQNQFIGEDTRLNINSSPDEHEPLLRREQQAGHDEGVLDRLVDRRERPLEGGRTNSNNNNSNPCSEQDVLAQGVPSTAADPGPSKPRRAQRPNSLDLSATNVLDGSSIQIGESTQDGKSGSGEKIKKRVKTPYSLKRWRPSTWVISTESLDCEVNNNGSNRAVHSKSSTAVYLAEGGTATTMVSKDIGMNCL
Chain of KIT (P10721 26-976): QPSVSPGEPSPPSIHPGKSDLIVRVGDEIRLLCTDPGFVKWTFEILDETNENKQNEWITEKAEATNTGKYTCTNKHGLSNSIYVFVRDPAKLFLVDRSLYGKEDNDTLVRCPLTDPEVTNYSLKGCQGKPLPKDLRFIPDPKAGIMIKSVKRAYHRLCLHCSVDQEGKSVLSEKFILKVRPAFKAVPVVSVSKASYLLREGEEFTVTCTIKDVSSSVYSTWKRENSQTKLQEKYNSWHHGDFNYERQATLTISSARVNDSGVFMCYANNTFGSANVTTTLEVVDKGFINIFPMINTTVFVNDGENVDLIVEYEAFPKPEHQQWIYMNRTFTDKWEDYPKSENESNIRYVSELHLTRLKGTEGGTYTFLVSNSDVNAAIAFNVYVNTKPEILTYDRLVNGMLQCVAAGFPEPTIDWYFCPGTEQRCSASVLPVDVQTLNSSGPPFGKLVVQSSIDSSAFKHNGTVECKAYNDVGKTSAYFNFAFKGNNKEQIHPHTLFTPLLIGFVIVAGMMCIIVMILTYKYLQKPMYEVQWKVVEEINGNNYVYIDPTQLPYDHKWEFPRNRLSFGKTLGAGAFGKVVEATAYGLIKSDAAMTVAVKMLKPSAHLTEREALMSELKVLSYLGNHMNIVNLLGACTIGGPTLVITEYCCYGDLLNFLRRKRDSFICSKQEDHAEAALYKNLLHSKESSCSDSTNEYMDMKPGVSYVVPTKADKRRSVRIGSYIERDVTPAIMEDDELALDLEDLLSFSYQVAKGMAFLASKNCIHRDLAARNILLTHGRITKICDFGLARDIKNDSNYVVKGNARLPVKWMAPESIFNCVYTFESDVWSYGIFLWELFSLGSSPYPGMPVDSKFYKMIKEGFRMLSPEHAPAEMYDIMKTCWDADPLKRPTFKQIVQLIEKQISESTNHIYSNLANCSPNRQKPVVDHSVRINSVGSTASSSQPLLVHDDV
Chain of STK33 (Q9BYT3 whole entry): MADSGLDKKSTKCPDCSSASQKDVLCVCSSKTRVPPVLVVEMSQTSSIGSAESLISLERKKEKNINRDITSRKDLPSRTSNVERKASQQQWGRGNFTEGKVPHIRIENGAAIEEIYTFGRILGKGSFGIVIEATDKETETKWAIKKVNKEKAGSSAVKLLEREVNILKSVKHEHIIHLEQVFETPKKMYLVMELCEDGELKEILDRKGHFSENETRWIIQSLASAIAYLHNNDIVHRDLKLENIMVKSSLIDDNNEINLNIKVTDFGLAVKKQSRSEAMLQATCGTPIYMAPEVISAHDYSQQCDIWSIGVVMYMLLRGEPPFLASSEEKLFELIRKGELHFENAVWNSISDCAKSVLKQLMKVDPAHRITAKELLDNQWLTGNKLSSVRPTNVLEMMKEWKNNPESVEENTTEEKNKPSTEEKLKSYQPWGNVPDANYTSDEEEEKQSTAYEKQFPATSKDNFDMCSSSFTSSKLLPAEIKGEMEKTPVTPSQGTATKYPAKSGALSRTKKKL
Chain of STK32B (YANK2) (Q9NY57 whole entry): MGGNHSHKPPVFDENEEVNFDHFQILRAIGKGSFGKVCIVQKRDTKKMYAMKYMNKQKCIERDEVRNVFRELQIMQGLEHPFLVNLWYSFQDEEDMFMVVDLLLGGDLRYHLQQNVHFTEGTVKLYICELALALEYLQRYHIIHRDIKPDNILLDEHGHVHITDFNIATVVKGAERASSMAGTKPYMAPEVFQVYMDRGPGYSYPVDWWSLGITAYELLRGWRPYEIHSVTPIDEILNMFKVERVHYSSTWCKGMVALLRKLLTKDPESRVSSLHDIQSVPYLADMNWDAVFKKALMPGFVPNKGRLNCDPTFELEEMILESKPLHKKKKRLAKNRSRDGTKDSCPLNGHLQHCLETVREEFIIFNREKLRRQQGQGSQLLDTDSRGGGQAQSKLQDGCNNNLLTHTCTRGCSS
Chain of BMPR1B (ALK6) (O00238 14-502): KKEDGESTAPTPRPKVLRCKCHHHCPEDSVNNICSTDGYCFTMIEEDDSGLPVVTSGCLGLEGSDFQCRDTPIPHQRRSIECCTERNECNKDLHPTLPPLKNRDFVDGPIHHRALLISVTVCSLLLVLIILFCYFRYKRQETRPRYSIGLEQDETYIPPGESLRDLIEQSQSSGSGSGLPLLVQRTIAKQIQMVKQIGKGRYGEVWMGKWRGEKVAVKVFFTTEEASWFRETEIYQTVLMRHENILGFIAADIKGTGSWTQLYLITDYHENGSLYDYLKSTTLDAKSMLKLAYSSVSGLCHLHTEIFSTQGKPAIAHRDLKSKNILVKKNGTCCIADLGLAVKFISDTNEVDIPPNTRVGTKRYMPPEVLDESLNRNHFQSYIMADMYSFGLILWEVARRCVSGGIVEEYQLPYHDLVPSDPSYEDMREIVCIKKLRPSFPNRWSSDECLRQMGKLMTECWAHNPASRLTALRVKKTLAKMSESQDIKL
Chain of CAMKK2 (CaMKK beta) (Q96RR4 whole entry): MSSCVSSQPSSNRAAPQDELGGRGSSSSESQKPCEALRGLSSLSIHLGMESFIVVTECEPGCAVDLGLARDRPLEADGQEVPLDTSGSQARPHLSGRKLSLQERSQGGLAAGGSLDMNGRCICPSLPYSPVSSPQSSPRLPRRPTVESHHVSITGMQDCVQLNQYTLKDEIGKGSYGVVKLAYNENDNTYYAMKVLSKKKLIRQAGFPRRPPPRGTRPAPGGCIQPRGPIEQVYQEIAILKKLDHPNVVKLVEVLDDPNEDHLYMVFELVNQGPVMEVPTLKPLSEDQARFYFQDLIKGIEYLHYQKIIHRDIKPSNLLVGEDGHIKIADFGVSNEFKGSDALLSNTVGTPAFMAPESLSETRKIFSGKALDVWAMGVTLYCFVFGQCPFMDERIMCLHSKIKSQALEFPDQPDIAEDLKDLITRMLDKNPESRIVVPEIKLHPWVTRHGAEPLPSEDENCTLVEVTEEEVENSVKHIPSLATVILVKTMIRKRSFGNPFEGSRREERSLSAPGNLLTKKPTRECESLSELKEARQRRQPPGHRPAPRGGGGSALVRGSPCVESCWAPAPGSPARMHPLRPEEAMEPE

treatment concentration below which stabilizing effects are negligible (CETSA) ([1]; A549 cells): lower than 2.22 μM
Compound: CCOC(=O)CCc1c(C)n(C(=O)c2ccccc2)c2ccc(Br)cc12 [IAPD1]
thermal stabilization of cellular IRE1α, CETSA ([1]; A549 cells treated 4 h): dose-dependently stabilized; also recorded: concentration-dependently stabilized; also recorded: concentration-dependently increased

Compound: Cc1c(CCC(=O)O)c2cc(Br)ccc2n1C(=O)c1ccccc1 [IA107]
inhibition at 5 µM [2]: -2%
inhibition at 5 µM [3]: 1%
inhibition at 5 µM [4]: 6%
inhibition at 5 µM [5]: 8%
inhibition at 5 µM [6]: 17%
inhibition at 5 µM [7]: -4%
inhibition at 5 µM [8]: 6%
inhibition at 5 µM [9]: 2%
inhibition at 5 µM [10]: -14%
inhibition at 5 µM [11]: -2%
inhibition at 5 µM [12]: -4%
inhibition at 5 µM [13]: 4%
inhibition at 5 µM [14]: -3%
inhibition at 5 µM [15]: 12%
inhibition at 5 µM [16]: -2%
inhibition at 5 µM [17]: -1%
inhibition at 5 µM [18]: 1%
inhibition at 5 µM [19]: 3%
inhibition at 5 µM [20]: 6%
inhibition at 5 µM [21]: 0%
inhibition at 5 µM [22]: 5%
inhibition at 5 µM [23]: 0%
